From patent US3960877A, “N-monosubstituted-2,3-pyridinedicarboxamides, and related compounds” (priority 1974, dated 1976)

Key:
Format in all cases: in vivo
Alfalfa [1] = assay: Preemergence herbicidal activity, % control of plant growth; conditions: Medicago sativa, pre-emergence, 504 h, 16 lb/acre, about 3 weeks
Excerpt: (§1) By "preemergence" is meant that the compound is applied to the soil prior to emergence of the weed species sought to be controlled. This term, as used herein, also means the application of the herbicidal compounds falling within the scope of this disclosure to areas wherein useful or desirable plants are either growing or have been sown, but where the undesirable plants sought to be controlled have not as yet emerged.
(§2) In using the compound, seeds of the types of plants set forth in Table II were sown in fresh soil. In the preemergence test the soil was sprayed with a solution of the test compound immediately after the seeds were planted, and before any noticeable growth developed. The solution was about a 2 percent by weight solution of the compound in acetone and/or alcohol. The compound was applied at the rate of 16 pounds per acre of soil surface.
(§3) Approximately 3 weeks after spray application, the herbicidal activity of the compound was determined by visual observation of the treated area in comparison with untreated control areas. These observations are reported below in Table II wherein the average activity rating is reported as the percent control of plant growth.
(§4) *Preemergence test: compound applied at rate of 16 lb/acre

Barnyard Grass [2] = assay: as above; conditions: Echinochloa crus-galli, pre-emergence, 504 h; barnyard grass; 16 lb/acre; about 3 weeks
Excerpt: as §1, §2, §3, §4

Cheatgrass [3] = assay: as above; conditions: Bromus tectorum, pre-emergence, 504 h, 16 lb/acre, about 3 weeks
Excerpt: as §1, §2, §3, §4

Chickweed [4] = assay: as above; conditions: pre-emergence, 504 h, 16 lb/acre, about 3 weeks
Excerpt: as §1, §2, §3, §4

Corn [5] = assay: as above; conditions: Zea mays, pre-emergence, 504 h, 16 lb/acre, about 3 weeks
Excerpt: as §1, §2, §3, §4

Crabgrass [6] = assay: as above; conditions: Digitaria sanguinalis, pre-emergence, 504 h, 16 lb/acre, about 3 weeks
Excerpt: as §1, §2, §3, §4

Cucumber [7] = assay: as above; conditions: Cucumis sativus, pre-emergence, 504 h, 16 lb/acre, about 3 weeks
Excerpt: as §1, §2, §3, §4

Curled Dock [8] = assay: as above; conditions: pre-emergence, 504 h, 16 lb/acre, about 3 weeks
Excerpt: as §1, §2, §3, §4

Foxtail [9] = assay: as above; conditions: Setaria, pre-emergence, 504 h, 16 lb/acre, about 3 weeks
Excerpt: as §1, §2, §3, §4

Johnsongrass [10] = assay: as above; conditions: Sorghum halepense, pre-emergence, 504 h, 16 lb/acre, about 3 weeks
Excerpt: as §1, §2, §3, §4

Lambsquarters [11] = assay: as above; conditions: Chenopodium album, pre-emergence, 504 h, 16 lb/acre, about 3 weeks
Excerpt: as §1, §2, §3, §4

Nutgrass [12] = assay: as above; conditions: pre-emergence, 504 h, 16 lb/acre, about 3 weeks
Excerpt: as §1, §2, §3, §4

Pigweed [13] = assay: as above; conditions: Amaranthus retroflexus, pre-emergence, 504 h, 16 lb/acre, about 3 weeks
Excerpt: as §1, §2, §3, §4

Snapbeans [14] = assay: as above; conditions: pre-emergence, 504 h, 16 lb/acre, about 3 weeks
Excerpt: as §1, §2, §3, §4

Velvetleaf [15] = assay: as above; conditions: Abutilon theophrasti, pre-emergence, 504 h, 16 lb/acre, about 3 weeks
Excerpt: as §1, §2, §3, §4

Wild Oats [16] = assay: as above; conditions: Avena fatua, pre-emergence, 504 h, 16 lb/acre, about 3 weeks
Excerpt: as §1, §2, §3, §4

Yellow Rocket [17] = assay: as above; conditions: pre-emergence, 504 h, 16 lb/acre, about 3 weeks
Excerpt: as §1, §2, §3, §4

Alfalfa [18] = assay: Postemergence herbicidal activity, % control of plant growth; conditions: Medicago sativa, post-emergence, 264 h, 8 lb/acre, about 11 days
Excerpt: (§5) By the term "postemergence" is meant that the compound is applied to the plant sought to be controlled after it has emerged from the soil surface. This term is also used to describe the application of herbicidally active compounds to soil surface in and around growing plants sought to be controlled for purposes of effecting root absorption by the undesirable plant species.
(§6) In the postemergence test the soil and developing plants were sprayed approximately 2 weeks after the seeds were sown. The compound was applied at the rate of 8 pounds per acre from about a 2 percent by weight solution of the test compound in acetone and/or alcohol. The postemergence herbicidal activity was measured in the same way as the preemergence activity; i.e. visual observation approximately 11 days after spraying, and expressed as the percent control of plant growth.
(§7) **Postemergence test: compound applied at rate of 8 lb/acre

Barnyard Grass [19] = assay: as above; conditions: Echinochloa crus-galli, post-emergence, 264 h, 8 lb/acre, about 11 days
Excerpt: as §5, §6, §7

Cheatgrass [20] = assay: as above; conditions: Bromus tectorum, post-emergence, 264 h, 8 lb/acre, about 11 days
Excerpt: as §5, §6, §7

Chickweed [21] = assay: as above; conditions: post-emergence, 264 h, 8 lb/acre, about 11 days
Excerpt: as §5, §6, §7

Corn [22] = assay: as above; conditions: Zea mays, post-emergence, 264 h, 8 lb/acre, about 11 days
Excerpt: as §5, §6, §7

Crabgrass [23] = assay: as above; conditions: Digitaria sanguinalis, post-emergence, 264 h, 8 lb/acre, about 11 days
Excerpt: as §5, §6, §7

Cucumber [24] = assay: as above; conditions: Cucumis sativus, post-emergence, 264 h, 8 lb/acre, about 11 days
Excerpt: as §5, §6, §7

Curled Dock [25] = assay: as above; conditions: post-emergence, 264 h, 8 lb/acre, about 11 days
Excerpt: as §5, §6, §7

Foxtail [26] = assay: as above; conditions: Setaria, post-emergence, 264 h, 8 lb/acre, about 11 days
Excerpt: as §5, §6, §7

Johnsongrass [27] = assay: as above; conditions: Sorghum halepense, post-emergence, 264 h, 8 lb/acre, about 11 days
Excerpt: as §5, §6, §7

Lambsquarters [28] = assay: as above; conditions: Chenopodium album, post-emergence, 264 h, 8 lb/acre, about 11 days
Excerpt: as §5, §6, §7

Nutgrass [29] = assay: as above; conditions: post-emergence, 264 h, 8 lb/acre, about 11 days
Excerpt: as §5, §6, §7

Pigweed [30] = assay: as above; conditions: Amaranthus retroflexus, post-emergence, 264 h, 8 lb/acre, about 11 days
Excerpt: as §5, §6, §7

Snapbeans [31] = assay: as above; conditions: post-emergence, 264 h, 8 lb/acre, about 11 days
Excerpt: as §5, §6, §7

Velvetleaf [32] = assay: as above; conditions: Abutilon theophrasti, post-emergence, 264 h, 8 lb/acre, about 11 days
Excerpt: as §5, §6, §7

Wild Oats [33] = assay: as above; conditions: Avena fatua, post-emergence, 264 h, 8 lb/acre, about 11 days
Excerpt: as §5, §6, §7

Yellow Rocket [34] = assay: as above; conditions: post-emergence, 264 h, 8 lb/acre, about 11 days
Excerpt: as §5, §6, §7

Compound | pest or weed control at 17933.6 g/ha (Alfalfa [1]) | pest or weed control at 17933.6 g/ha (Barnyard Grass [2]) | pest or weed control at 17933.6 g/ha (Cheatgrass [3]) | pest or weed control at 17933.6 g/ha (Chickweed [4]) | plant injury at 17933.6 g/ha (Corn [5]) | pest or weed control at 17933.6 g/ha (Crabgrass [6]) | pest or weed control at 17933.6 g/ha (Cucumber [7]) | pest or weed control at 17933.6 g/ha (Curled Dock [8]) | pest or weed control at 17933.6 g/ha (Foxtail [9]) | pest or weed control at 17933.6 g/ha (Johnsongrass [10]) | pest or weed control at 17933.6 g/ha (Lambsquarters [11]) | pest or weed control at 17933.6 g/ha (Nutgrass [12]) | pest or weed control at 17933.6 g/ha (Pigweed [13]) | pest or weed control at 17933.6 g/ha (Snapbeans [14]) | pest or weed control at 17933.6 g/ha (Velvetleaf [15]) | pest or weed control at 17933.6 g/ha (Wild Oats [16]) | pest or weed control at 17933.6 g/ha (Yellow Rocket [17]) | pest or weed control at 8966.8 g/ha (Alfalfa [18]) | pest or weed control at 8966.8 g/ha (Barnyard Grass [19]) | pest or weed control at 8966.8 g/ha (Cheatgrass [20]) | also measured
CCCCn1c(=O)[nH]c2cccnc2c1=O [3-butyl-pyrido[3,2-d]pyrimidine-2,4(1H,3H)-dione] | 100% | 100% | 100% | 100% | 100% | 90% | 100% | 90% | 100% | 100% | 70% | 100% | 100% | 100% | 100% | 100% | 100% | 50% | 100% | 100% | pest or weed control at 8966.8 g/ha (Chickweed [21]): 100%; plant injury at 8966.8 g/ha (Corn [22]): 50%; pest or weed control at 8966.8 g/ha (Crabgrass [23]): 100%; pest or weed control at 8966.8 g/ha (Cucumber [24]): 100%; pest or weed control at 8966.8 g/ha (Curled Dock [25]): 100%; pest or weed control at 8966.8 g/ha (Foxtail [26]): 100%; pest or weed control at 8966.8 g/ha (Johnsongrass [27]): 100%; pest or weed control at 8966.8 g/ha (Lambsquarters [28]): 10%; pest or weed control at 8966.8 g/ha (Nutgrass [29]): 90%; pest or weed control at 8966.8 g/ha (Pigweed [30]): 90%; pest or weed control at 8966.8 g/ha (Snapbeans [31]): 100%; pest or weed control at 8966.8 g/ha (Velvetleaf [32]): 100%; pest or weed control at 8966.8 g/ha (Wild Oats [33]): 100%; pest or weed control at 8966.8 g/ha (Yellow Rocket [34]): 90%
CCn1c(=O)[nH]c2cccnc2c1=O [3-ethyl-pyrido[3,2-d]pyrimidine-2,4(1H,3H)-dione] | 100% | 40% | 100% | 100% | 10% | 100% | 100% | 100% | 40% | 60% | 100% | 10% | 100% | 100% | 90% | 100% | 100% | 50% | 10% | 30% | pest or weed control at 8966.8 g/ha (Chickweed [21]): 100%; plant injury at 8966.8 g/ha (Corn [22]): 10%; pest or weed control at 8966.8 g/ha (Crabgrass [23]): 80%; pest or weed control at 8966.8 g/ha (Cucumber [24]): 50%; pest or weed control at 8966.8 g/ha (Curled Dock [25]): 90%; pest or weed control at 8966.8 g/ha (Foxtail [26]): 40%; pest or weed control at 8966.8 g/ha (Johnsongrass [27]): 60%; pest or weed control at 8966.8 g/ha (Lambsquarters [28]): 100%; pest or weed control at 8966.8 g/ha (Nutgrass [29]): 10%; pest or weed control at 8966.8 g/ha (Pigweed [30]): 90%; pest or weed control at 8966.8 g/ha (Snapbeans [31]): 80%; pest or weed control at 8966.8 g/ha (Velvetleaf [32]): 100%; pest or weed control at 8966.8 g/ha (Wild Oats [33]): 0%; pest or weed control at 8966.8 g/ha (Yellow Rocket [34]): 100%
